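Test compounds were applied to cells in 96-well plates for 48 hours at 5 doses. TGI denotes the concentration required for complete inhibition of growth.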
Tests used:
Assay in all cases: inhibition of tumour cell growth, NCI panel, 48 h
HCT-116 colon = tested on: HCT-116 colon
HCT-15 colon = tested on: HCT-15 colon
HL-60(TB) leukemia = tested on: HL-60(TB) leukemia
HOP-62 NSCLC = tested on: HOP-62 NSCLC
IGROV1 ovarian = tested on: IGROV1 ovarian
M14 melanoma = tested on: M14 melanoma
MALME-3M melanoma = tested on: MALME-3M melanoma
NCI-H23 lung = tested on: NCI-H23 lung
SK-MEL-5 melanoma = tested on: SK-MEL-5 melanoma
SK-OV-3 ovarian = tested on: SK-OV-3 ovarian
SNB-75 CNS = tested on: SNB-75 CNS
UACC-62 melanoma = tested on: UACC-62 melanoma
MDA-MB-231 breast = tested on: MDA-MB-231 breast
T-47D breast = tested on: T-47D breast

**Q.** `COC(OC)c1cccc2c1C(=O)CCC1(O)c3ccccc3C1C2` (stereo not given) was tested. Which TGI (HCT-116 colon) did it give?
**A.** Its TGI is greater than 100 µM.

**Q.** And the TGI (HCT-15 colon)?
**A.** The TGI was greater than 100 µM.

**Q.** And the TGI (HL-60(TB) leukemia)?
**A.** The TGI was greater than 100 µM.

**Q.** And the TGI (HOP-62 NSCLC)?
**A.** Its TGI is greater than 100 µM.

**Q.** And the TGI (IGROV1 ovarian)?
**A.** The TGI was greater than 100 µM.

**Q.** What about the TGI (M14 melanoma) of the same compound?
**A.** Its TGI is greater than 100 µM.

**Q.** And the TGI (MALME-3M melanoma)?
**A.** The TGI was greater than 100 µM.

**Q.** What about the TGI (NCI-H23 lung) of the same compound?
**A.** The TGI was greater than 100 µM.

**Q.** What about the TGI (SK-MEL-5 melanoma) of the same compound?
**A.** The TGI was greater than 100 µM.

**Q.** What about the TGI (SK-OV-3 ovarian) of the same compound?
**A.** The TGI was greater than 100 µM.

**Q.** And the TGI (SNB-75 CNS)?
**A.** The TGI was greater than 100 µM.

**Q.** And the TGI (UACC-62 melanoma)?
**A.** Its TGI is greater than 100 µM.

**Q.** `COc1ccc(C2C3C(=O)C=CC(=O)C3[C@@H]2C)cc1OC` (stereo not given in full) was tested. Which TGI (HCT-116 colon) did it give?
**A.** Its TGI is greater than 100 µM.

**Q.** What about the TGI (HCT-15 colon) of the same compound?
**A.** The TGI was 62.4 µM.

**Q.** And the TGI (HOP-62 NSCLC)?
**A.** The TGI was greater than 100 µM.

**Q.** What about the TGI (IGROV1 ovarian) of the same compound?
**A.** The TGI was greater than 100 µM.

**Q.** What about the TGI (M14 melanoma) of the same compound?
**A.** The TGI was greater than 100 µM.

**Q.** And the TGI (MALME-3M melanoma)?
**A.** The TGI was greater than 100 µM.

**Q.** What about the TGI (NCI-H23 lung) of the same compound?
**A.** Its TGI is greater than 100 µM.

**Q.** And the TGI (SK-MEL-5 melanoma)?
**A.** Its TGI is greater than 100 µM.

**Q.** What about the TGI (SK-OV-3 ovarian) of the same compound?
**A.** The TGI was greater than 100 µM.

**Q.** And the TGI (SNB-75 CNS)?
**A.** The TGI was greater than 100 µM.

**Q.** What about the TGI (UACC-62 melanoma) of the same compound?
**A.** Its TGI is greater than 100 µM.

**Q.** Which results are given for `CC(OC(=O)NCn1cc(-c2ccccc2)nn1)c1ccccc1` (stereo not given)?
**A.** TGI (HCT-116 colon): > 100 µM; TGI (HCT-15 colon): > 100 µM; TGI (HL-60(TB) leukemia): 75 µM; TGI (HOP-62 NSCLC): > 100 µM; TGI (IGROV1 ovarian): > 100 µM; TGI (M14 melanoma): 34.9 µM; TGI (MALME-3M melanoma): 89.9 µM; TGI (MDA-MB-231 breast): > 100 µM; TGI (NCI-H23 lung): 76.8 µM; TGI (SK-MEL-5 melanoma): 32.4 µM

**Q.** Which TGI (HCT-116 colon) does the source give for `Cc1ccc(-c2c(C#N)c(S)n(NS(=O)(=O)c3ccc(C)cc3)c(=O)c2C#N)cc1` here?
**A.** Its TGI is 90.9 µM.

**Q.** And the TGI (HCT-15 colon)?
**A.** Its TGI is 40.4 µM.

**Q.** What about the TGI (HL-60(TB) leukemia) of the same compound?
**A.** The TGI was greater than 100 µM.

**Q.** And the TGI (IGROV1 ovarian)?
**A.** Its TGI is 51.1 µM.

**Q.** What about the TGI (M14 melanoma) of the same compound?
**A.** Its TGI is 81.5 µM.

**Q.** And the TGI (MALME-3M melanoma)?
**A.** The TGI was 38.7 µM.

**Q.** What about the TGI (MDA-MB-231 breast) of the same compound?
**A.** Its TGI is greater than 100 µM.

**Q.** And the TGI (NCI-H23 lung)?
**A.** Its TGI is 52.3 µM.

**Q.** What about the TGI (SK-MEL-5 melanoma) of the same compound?
**A.** The TGI was 49.2 µM.

**Q.** And the TGI (SK-OV-3 ovarian)?
**A.** Its TGI is greater than 100 µM.

**Q.** What about the TGI (SNB-75 CNS) of the same compound?
**A.** The TGI was 37.4 µM.

**Q.** And the TGI (UACC-62 melanoma)?
**A.** The TGI was greater than 100 µM.

**Q.** How did the TGI (HCT-116 colon) turn out when `CCCC/C=C/C1Cc2ccccc2CN1S(=O)(=O)c1ccc(C)cc1` (stereo not given) was run?
**A.** The TGI was 3.35 µM.

**Q.** And the TGI (HCT-15 colon)?
**A.** Its TGI is 49.2 µM.

**Q.** What about the TGI (HL-60(TB) leukemia) of the same compound?
**A.** The TGI was greater than 100 µM.

**Q.** And the TGI (HOP-62 NSCLC)?
**A.** The TGI was greater than 100 µM.

**Q.** And the TGI (IGROV1 ovarian)?
**A.** Its TGI is 26.9 µM.

**Q.** What about the TGI (M14 melanoma) of the same compound?
**A.** The TGI was 26 µM.

**Q.** What about the TGI (MALME-3M melanoma) of the same compound?
**A.** Its TGI is greater than 100 µM.

**Q.** And the TGI (NCI-H23 lung)?
**A.** Its TGI is 16.4 µM.

**Q.** What about the TGI (SK-MEL-5 melanoma) of the same compound?
**A.** Its TGI is 14.9 µM.

**Q.** What about the TGI (SK-OV-3 ovarian) of the same compound?
**A.** Its TGI is 90.6 µM.

**Q.** And the TGI (SNB-75 CNS)?
**A.** The TGI was 37.5 µM.

**Q.** And the TGI (UACC-62 melanoma)?
**A.** The TGI was 27.5 µM.

**Q.** `CC1(C)CC(=O)C2=C(C1)c1c(ccc3ccccc13)NC2c1cn(Cc2ccc(Cl)cc2)c2ccccc12` (stereo not given) was tested. Which TGI (HCT-116 colon) did it give?
**A.** Its TGI is greater than 100 µM.

**Q.** And the TGI (HCT-15 colon)?
**A.** The TGI was greater than 100 µM.

**Q.** And the TGI (HL-60(TB) leukemia)?
**A.** Its TGI is greater than 100 µM.

**Q.** What about the TGI (HOP-62 NSCLC) of the same compound?
**A.** Its TGI is greater than 100 µM.

**Q.** What about the TGI (IGROV1 ovarian) of the same compound?
**A.** Its TGI is greater than 100 µM.

**Q.** What about the TGI (M14 melanoma) of the same compound?
**A.** The TGI was greater than 100 µM.

**Q.** What about the TGI (MDA-MB-231 breast) of the same compound?
**A.** Its TGI is greater than 100 µM.

**Q.** What about the TGI (NCI-H23 lung) of the same compound?
**A.** The TGI was greater than 100 µM.

**Q.** What about the TGI (SK-MEL-5 melanoma) of the same compound?
**A.** Its TGI is greater than 100 µM.

**Q.** What about the TGI (SK-OV-3 ovarian) of the same compound?
**A.** Its TGI is greater than 100 µM.

**Q.** And the TGI (SNB-75 CNS)?
**A.** The TGI was greater than 100 µM.

**Q.** And the TGI (T-47D breast)?
**A.** The TGI was greater than 100 µM.

**Q.** And the TGI (UACC-62 melanoma)?
**A.** Its TGI is greater than 100 µM.

**Q.** Which results are given for `CCCc1c(OC)c(=O)c2c(OC)cc(OC)c3c4c(OC)cc(OC)c5c(=O)c(OC)c(CCC)c(c1c23)c54`?
**A.** TGI (HCT-116 colon): 28 µM; TGI (HCT-15 colon): 27.9 µM; TGI (HL-60(TB) leukemia): 10.4 µM; TGI (HOP-62 NSCLC): 33 µM; TGI (IGROV1 ovarian): 34.8 µM; TGI (M14 melanoma): 30.6 µM; TGI (MDA-MB-231 breast): 18.3 µM; TGI (NCI-H23 lung): 29.5 µM; TGI (SK-MEL-5 melanoma): 22.6 µM; TGI (SK-OV-3 ovarian): 30.4 µM; TGI (SNB-75 CNS): 36 µM; TGI (T-47D breast): 20.6 µM; TGI (UACC-62 melanoma): 24.1 µM

**Q.** For `CC(=O)OCC1OC(n2c3c(c(-c4ccco4)c(C#N)c2=S)CCC3)C(OC(C)=O)C(OC(C)=O)C1OC(C)=O` (stereo not given), which TGI (HCT-116 colon) is on record?
**A.** Its TGI is greater than 100 µM.

**Q.** What about the TGI (HCT-15 colon) of the same compound?
**A.** Its TGI is greater than 100 µM.

**Q.** What about the TGI (HL-60(TB) leukemia) of the same compound?
**A.** The TGI was greater than 100 µM.

**Q.** And the TGI (HOP-62 NSCLC)?
**A.** The TGI was greater than 100 µM.

**Q.** And the TGI (IGROV1 ovarian)?
**A.** Its TGI is greater than 100 µM.

**Q.** What about the TGI (M14 melanoma) of the same compound?
**A.** The TGI was greater than 100 µM.

**Q.** What about the TGI (MALME-3M melanoma) of the same compound?
**A.** The TGI was greater than 100 µM.

**Q.** And the TGI (NCI-H23 lung)?
**A.** The TGI was greater than 100 µM.

**Q.** And the TGI (SK-MEL-5 melanoma)?
**A.** The TGI was greater than 100 µM.

**Q.** What about the TGI (SK-OV-3 ovarian) of the same compound?
**A.** The TGI was greater than 100 µM.

**Q.** And the TGI (SNB-75 CNS)?
**A.** The TGI was greater than 100 µM.

**Q.** And the TGI (UACC-62 melanoma)?
**A.** Its TGI is greater than 100 µM.

**Q.** Which TGI (HCT-116 colon) does the source give for `COc1cc(C2C(Cl)C(=O)N2NC(=O)c2ccccc2O)ccc1O` (stereo not given) here?
**A.** The TGI was greater than 100 µM.

**Q.** What about the TGI (HCT-15 colon) of the same compound?
**A.** Its TGI is greater than 100 µM.

**Q.** And the TGI (HL-60(TB) leukemia)?
**A.** The TGI was greater than 100 µM.

**Q.** What about the TGI (IGROV1 ovarian) of the same compound?
**A.** The TGI was greater than 100 µM.

**Q.** And the TGI (M14 melanoma)?
**A.** The TGI was greater than 100 µM.

**Q.** And the TGI (MALME-3M melanoma)?
**A.** The TGI was greater than 100 µM.

**Q.** And the TGI (NCI-H23 lung)?
**A.** Its TGI is greater than 100 µM.

**Q.** And the TGI (SK-MEL-5 melanoma)?
**A.** The TGI was greater than 100 µM.

**Q.** And the TGI (SK-OV-3 ovarian)?
**A.** Its TGI is greater than 100 µM.

**Q.** And the TGI (UACC-62 melanoma)?
**A.** Its TGI is greater than 100 µM.
